Data as given in patent US12319752B2, “Heparin-binding cationic peptide self-assembling peptide amphiphiles useful against drug-resistant bacteria” (priority 2016, dated 2025).
Residues, ends and D or L forms follow the SMILES beside them. *: point of attachment. Palmitoyl = CCCCCCCCCCCCCCCC(=O)*

Experiments:
[1] = tested on: human dermal fibroblasts (HDF); assay: Cytotoxicity, MTS cell viability assay; assay type: cell-based
Description: (§1) To evaluate the cytotoxicity of the peptides, human dermal fibroblasts (HDF) were treated for 24 h, and cell viability was determined via MTS assays (FIG. 13).
(§2) Human dermal fibroblast cells (HDF, Detroit 551, ATCC #CCL-110) were cultured in Dulbecco's modified Eagle medium (DMEM; Fisher, Pittsburgh, PA) supplemented with 10% fetal bovine serum (FBS) and 1% penicillin/streptomycin for 24 h. All cells were cultured to 90% confluence in a 37° C., humidified, 5% CO2/95% air environment. Cells at passage numbers of 4-7 were used in these experiments.
(§3) The MTS cell viability assay kit (Promega, Madison, WI, USA) was used to determine cytotoxicity of the peptides. First, HDF cells were seeded on a 96-well plate at a cell density of 5,000 cells/well (equal to 15,385 cells/cm^2), and were incubated overnight for cell adhesion. After overnight incubation, the cell medium in each well was replaced by 100 μL of cell culture medium containing various concentrations of peptides (20 μM to 100 μM). The control samples were cells incubated in cell culture medium only. After 24 h, the treatment medium in each well was removed. The cells were washed with phosphate buffered saline (PBS, pH=7.4, Fisher, PA, USA) and 100 μL of fresh cell culture medium was added to each well, followed by the addition of 20 μL of the MTS reagent. After the cells were incubated for 2.5 h, the absorbance was measured at a wavelength of 490 nm by a spectrophotometer (SpectraMax M3, Molecular Devices, Molecular Devices, Sunnyvale, CA, USA). To estimate the cell numbers in each well, a standard curve expressing the linear correlation between different cell densities and optical densities (R^2>0.95) was plotted, and the cell numbers were determined with this standard curve from the OD490 value recorded in each sample. The cell viability of each sample was calculated by: Cell viability=[(cell density per mL of treated sample)/(cell density per mL of control sample)]×100%. Data were expressed by standard error of the mean (±S.E.M.) and N=3, *p<0.05 compared with control samples.

[2] = Cytotoxicity, MTS cell viability assay; assay type: cell-based, human; details: human, human dermal fibroblasts (HDF, Detroit 551, ATCC CCL-110)
Description: as §1, §2, §3

MDR E. coli = assay: Bacterial membrane disruption by TEM of ultrathin sections; assay type: cell-based, multidrug-resistant E. coli (MDR E. coli); details: 4 h
Description: TEM was used to reveal the damage in bacterial cell envelopes caused by ACA-PA treatment. Drug-resistant bacterial strains (MRSA and MDR E. coli) were exposed to ACA-PA at concentrations below (40 μM) and above (80 μM) the CMC, and ultrathin sections of the bacterial cultures were visualized by TEM.
The ACA-PA at a concentration lower than CMC seemed to only influenced the outer bacteria membrane, but were inadequate to disrupt the inner bacteria membranes.
Bacterial membrane disruption was observed from the ultrathin sectioned sample using TEM. […] After treatment with 80 μM ACA nanorods, bacterial cell membranes were severely damaged with complete cytoplasm leakage. […] On the damaged membranes, blisters appeared to originate from the pores. This explains the reason for the different antibacterial activity of ACA-PA on Gram-negative bacteria compared to the concentration-dependent toxicity on Gram-positive bacteria. The cell envelope of Gram-positive has a cytoplasmic membrane surrounded by a thick peptidoglycan layer with lipoteichoic acid. The antibacterial ACA-PA could penetrate the Gram-positive bacterial membrane by charge and hydrophobicity, although the PA were in a dispersed, non-assembled form. However, such dispersed PA were not able to penetrate the outer membrane of Gram-negative bacteria. […]

S. aureus = assay: Viable colony count assay (bactericidal effect, 4 h); assay type: cell-based, Staphylococcus aureus (ATCC #25923)
Description: The bactericidal effects of the peptides were examined using a viable colony count assay as well as the live/dead staining assay. For the viable colony count assay, bacteria were treated with peptides for 4 h and the resulting viable bacterial density of each sample was expressed by log10[CFU/mL]. For the Gram-positive bacteria tested, the decrease in bacterial density was dependent on the concentration of the ACA-PA (FIG. 8A). […] As for Gram-negative E. coli and MDR E. coli bacteria (FIG. 8B), the ACA nanorods, wherein the PA were added at a concentration above their CMC, had potent bactericidal effects. For example, the ACA nanorods at concentrations over 60 μM reduced the colony forming units of Gram-negative bacteria by about a five log unit reduction after 4 h compared with the untreated negative control sample.
The viable count assay was performed to quantify the bactericidal activity of each peptide. Stock solutions of peptides were diluted in 3% TSB media to concentrations ranging from 20 μM to 100 μM immediately before experiments. Heparin-ACA-PA were also prepared by mixing the ACA-PA stock solution with heparin (sodium salt from porcine intestinal mucosa, Sigma, St. Louis, MO) to 1:1, 1:2 and 1:3 weight ratios in water, and a final concentration of ACA-PA in the heparin-ACA-PA at each heparin weight ratio was adjusted to 80 μM for each experiment. The bacteria (10^6 CFU/mL) were incubated with peptides at 37° C. for 4 h. After incubation, serial dilutions of samples were plated on TSB agar and then incubated at 37° C. overnight. The colonies from each spot were manually counted, and the CFU number for each sample was determined. Experiments were conducted in triplicate and results were expressed as the log 10 values of the CFU number in each sample. Data were expressed by stand error of the mean (±S.E.M.) and N=3, *p<0.05 compared with control samples and #p<0.05 compared with bacteria treated with 40 μM of ACA-PA.

CCCCCCCCCCCCCCCC(=O)N[C@H](C(=O)N[C@H](C(=O)N[C@H](C(=O)N[C@H](C(=O)N[C@@H](CCCCN)C(=O)N[C@@H](CCCCN)C(=O)N[C@@H](CCCCN)C(=O)N[C@@H](CCCCN)C(=O)NCC(=O)N[C@@H](C)C(=O)N[C@@H](CCCCN)C(=O)N[C@@H](CCCCN)C(=O)N[C@@H](C)C(=O)N[C@@H](CCCNC(=N)N)C(=O)N[C@@H](C)C(=O)N[C@@H](C)C(=O)N[C@@H](CCCCN)C(=O)N[C@@H](CCCCN)C(=O)N[C@@H](C)C(=O)N[C@@H](CCCNC(=N)N)C(=O)N[C@@H](C)C(=O)O)C(C)C)C(C)C)C(C)C)C(C)C [ACA-PA, C16-V4K4G(AKKARA)2 (SEQ ID NO: 7)] (Palmitoyl-VVVVKKKKGAKKARAAKKARA-OH; N-terminus and C-terminus assumed)
cytotoxicity [1]: moderate cytotoxicity | viability at 24 h, 100 µM [2]: > 50% | bacterial membrane disruption (TEM) (MDR E. coli; 40 μM): blisters only on the outer cell walls | bacterial membrane disruption (TEM) (MDR E. coli; 80 μM): disrupted bacteria envelopes with loosened and disconnected membranous structures | decrease in bacteria density (S. aureus; S. aureus (Gram-positive), 60 to 100 μM): ~100 fold | decline in bacteria density (S. aureus; S. aureus, over 80 μM, 4 h): 100 fold | decrease of colony forming units (S. aureus; S. aureus, over 80 μM, 4 h): two
